In US10130590B2, “Methods of treating cancer with atovaquone-related compounds” (DANA-FARBER CANCER INSTITUTE, INC., priority 2013, dated 2018):

Tests used:
Assay type in all cases: cell-based
STAT5 = STAT5 phosphorylation in cancer cells
Text: It has been discovered, using an unbiased gene expression-based approach, that atovaquone is a novel STAT3 inhibitor. Atovaquone acts by diminishing cell-surface gp130 expression and STAT3 tyrosine phosphorylation. As a consequence, critical STAT3 target genes mediating survival and proliferation are reduced, such as survivin, Bcl-2 family members, and cyclin D1. Moreover, atovaquone inhibits the viability of STAT3-dependent cancer cells by inducing apoptosis and disrupting cell cycle progression. […] Since STAT5 activation is crucial to cancer pathogenesis caused by JAK2-V617F, the additional inhibition of STAT5 in this context is a desirable effect of atovaquone. […] Because the effects of atovaquone on STAT activation are restricted to gp130-dependent signaling, atovaquone inhibits STATs more selectively than direct pharmacological JAK inhibition. […] At the same time, the actions of atovaquone extend to all cytokines that signal through gp130, including LIF and OSM, thereby exerting broader effects than therapies specifically directed against IL-6 or IL-6 receptor, such as monoclonal antibodies. This is also advantageous, since oncogenic effects of LIF and OSM have been reported.

[1] = test system: malignant hematological cell lines that lack STAT3 activation; test: Cell viability of hematologic cancer cells lacking STAT3 activation; conditions: 72 hours
Description: (§1) Western blotting was performed as previously described (Battle T E, Arbiser J, & Frank D A (2005) The natural product honokiol induces caspase dependent apoptosis in B-cell chronic lymphocytic leukemia (B-CLL) cells. Blood 106(2):690-697). Antibodies to phospho-MAPK (9101), total MAPK (9102), phospho-Y705 STAT3 (9131), phospho-S6 (2215), total S6 (2217), phospho-4E-BP1 (9451), total 4E-BP1 (9644), total RSK (9355), phospho-S6K (9234, 85 used at 1:5000), total S6K (2708), phospho-eIF2α (9721, used at 1:1000), total eIF2α (5324), ATF4 (11815, used at 1:1000), PDGFRβ (3169), IGF1Rβ (9750), EGFR (2232), and HER2 (2242) were from Cell Signaling Technology. Phospho-RSK antibody was from R&D (AF889). Antibodies to total STAT3 (sc-482) and gp130 (sc-656, used at 1:1000) were from Santa Cruz Biotechnology. Phospho-S727 STAT3 antibody was described previously (229). REDD1 antibody was from Proteintech (10638-1-AP, used at 1:1000). Antibody recognizing full-length and cleaved ATF6 was from Abcam (ab122897, used at 1:1000). Antibodies to tubulin (T5168) and beta actin (A5316) were from Sigma. All antibodies were used at 1:10000 dilution for western blot unless otherwise noted. […] Cell viability was measured as ATP-dependent luminescence by Cell Titer Glo (Promega). […]

HEL cells = test: Cell viability (Cell Titer Glo), HEL; conditions: 72 hours
Description: as §1

With `O=C1C(O)=C([C@H]2CC[C@H](c3ccc(Cl)cc3)CC2)C(=O)c2ccccc21` [atovaquone, trans-2-[4-(4-chlorophenyl)cyclohexyl]-3-hydroxy-1,4-naphthalenedione] the “mutant JAK2-dependent phosphorylation of STAT5” value (STAT5; HEL cells) was “inhibited”, the “STAT5 phosphorylation (BCR-ABL activated)” value (STAT5; K562 cells) was “did not inhibit STAT5 phosphorylation” and the “viability of malignant hematological cell lines that lack STAT3 activation” value [1] was “reduced the viability”. The “viability of HEL cells” value (HEL cells) was “killed”.
